Results on 2 molecules are retold here after article PMC8296622, “Crystal structure and functional characterization of an oligosaccharide dehydrogenase from Pycnoporus cinnabarinus provides insights into fungal breakdown of lignocellulose” (Biotechnology for Biofuels, 2021).

The structures appear in SMILES notation.

Assay [1] deals with T1, ODH (oligosaccharide dehydrogenase) (Trametes cinnabarina, UniProt A0A060SC37).
T1 construct: gene BN946_scf184803.g17
Kind of assay: X-ray crystallography. The class given is binding. Conditions: ligand-free (sugar-free) enzyme, 1.6 Å; non-covalently bound, oxidized FAD.

In assay [2] the target is T1, ODH (oligosaccharide dehydrogenase). Kind of assay: X-ray crystallography of soaked crystals (data not shown). Conditions: bound at three external surface sugar-binding sites, not in the active site.

T1 sequence (A0A060SC37 entry or part of it): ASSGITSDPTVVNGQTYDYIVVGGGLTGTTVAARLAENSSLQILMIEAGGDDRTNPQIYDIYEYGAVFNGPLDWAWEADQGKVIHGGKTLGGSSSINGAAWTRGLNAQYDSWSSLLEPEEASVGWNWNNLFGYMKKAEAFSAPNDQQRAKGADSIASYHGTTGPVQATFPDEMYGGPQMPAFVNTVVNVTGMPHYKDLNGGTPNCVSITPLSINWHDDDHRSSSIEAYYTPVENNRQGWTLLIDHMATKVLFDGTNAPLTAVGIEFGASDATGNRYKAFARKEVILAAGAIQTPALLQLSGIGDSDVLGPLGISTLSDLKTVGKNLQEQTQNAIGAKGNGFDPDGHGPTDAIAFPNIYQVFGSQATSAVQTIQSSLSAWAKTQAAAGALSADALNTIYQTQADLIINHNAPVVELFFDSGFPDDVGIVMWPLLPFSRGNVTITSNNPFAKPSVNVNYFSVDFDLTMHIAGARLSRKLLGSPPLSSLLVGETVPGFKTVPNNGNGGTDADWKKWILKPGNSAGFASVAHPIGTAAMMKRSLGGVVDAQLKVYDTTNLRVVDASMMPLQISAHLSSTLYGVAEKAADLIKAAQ

As to `Cc1cc2nc3c(=O)[nH]c(=O)nc-3n(C[C@H](O)[C@H](O)[C@H](O)COP(=O)(O)OP(=O)(O)OC[C@H]3O[C@@H](n4cnc5c(N)ncnc54)[C@H](O)[C@@H]3O)c2cc1C` [FAD], the X-ray crystallography result in assay [1] is reported as “The FAD molecule is non-covalently bound to the protein”. For the molecule `OC[C@H]1O[C@@H](O[C@H]2[C@H](O)[C@@H](O)C(O)O[C@@H]2CO)[C@H](O)[C@@H](O)[C@@H]1O` (mixture of isomers) [G4G, cellobiose], the “X-ray crystallography of soaked crystals (data not shown)” value in assay [2] is recorded as “the ligand was clearly bound to (and modeled at) the three SBSs (data not shown)”.
